Laboratory results from patent US10420836B2, “Methods of immunizing a subject and compositions related thereto” (priority 2015, dated 2019).
Read-outs that look alike come from different tables or passages of the source.

What was measured:
[1] = test system: A/Victoria/210/2009 subunit influenza vaccine; type: in vivo, mice; conditions: after intradermal vaccination with A/Victoria/210/2009 plus adjuvant
[2] = test system: influenza virus A/Udorn/1972 (H3N2); type: in vivo, mice; conditions: for survival: adjuvant co-administered intradermally with 1 μg HA A/Victoria/210/2009 subunit vaccine; for body weight loss after challenge / signs of disease after challenge: adjuvant with vaccine; for body weight loss after challenge: compared to the other vaccinated groups; for protective immune responses / protective immunity to influenza: used as adjuvant for intradermal influenza vaccination
[3] = Observation for adverse effects after adjuvanted skin vaccination; type: in vivo; conditions: low doses used for skin vaccination; four months post-adjuvanted vaccination
From the text: This modification may improve antigen presentation resulting in protective immunity. […] See Manoury. Proteases: essential actors in processing antigens and intracellular toll-like receptors. Frontiers in immunology 4, 299, (2013). Fullerene is considered as nanoparticle due to its structure that can recruit cells following skin immunization. The toxicity of fullerenes has been reported in Zhang et al., Endocytic mechanisms and toxicity of a functionalized fullerene in human cells. Toxicology letters 191, 149-157, (2009). […] Vaccine adjuvant and vaccine formulations of fullerene derivatives are reported in CN103495164.

[4] = test system: primary human keratinocytes; type: cell-based; conditions: primary human keratinocytes (unpublished)
caspase-1 = experiment: Preliminary cell-signaling data (inflammasome / caspase-1 activation)

Row | Compound | Serum IgG2a [1] | survival ([2]; 4×LD50 A/Udorn/1972 challenge) | body weight loss after challenge [2] | protective immune responses / protective immunity to influenza [2] | survival ([2]; […]) | adverse effects [3] | IL-1 beta and TNF-α production [4] | signs of disease after challenge [2] | survival rate ([2]; at three different doses tested (11.9, 119 and 1190 nanomoles) with vaccine, infection with A/Udorn 1972) | caspase-1 activation (caspase-1) | longevity of immune responses ([2]; combined with vaccine, […])
1 | O=C(Nc1cc(C(F)(F)F)cc(C(F)(F)F)c1)c1cc(Cl)ccc1O [IMD 0354, N-(3,5-bis-trifluoromethyl-phenyl)-5-chloro-2-hydroxy-benzamide] | increased | 100% | minimal body weight loss | improved protective immunity to influenza |  |  |  |  |  |  | 
2 | c12c3c4c5c1c1c6c7c2c2c8c3c3c9c4c4c%10c5c5c1c1c6c6c%11c7c2c2c7c8c3c3c8c9c4c4c9c%10c5c5c1c1c6c6c%11c2c2c7c3c3c8c4c4c9c5c1c1c6c2c3c41 [fullerene] |  |  |  | improved protective immune responses | 80% | no adverse effects |  |  |  |  | 
3 | O=C1c2c(O)cccc2Cc2cccc(O)c21 [anthralin, 1,8-dihydroxy-9,10-dihydroanthracen-9-one] |  | 80% |  | induces protective immune responses |  |  | large amounts | fewer signs of disease | ≥ 80% | not activated | 
4 | CC(C)Cn1cnc2c(N)nc3ccccc3c21 [Imiquimod] |  |  | lowest body weight loss |  |  |  |  | fewer signs of disease |  |  | improved
